Experimental data published in patent US20260176289A1, “SMALL MOLECULE INHIBITORS OF KRAS PROTEINS” (Merck Sharp & Dohme LLC, priority 2022, published 2026).
Where two headings read alike, the source gives them in different places.

How the values were obtained:
KRAS-WT = KRAS-WT (Homo sapiens, UniProt P01116); experiment: SOS-catalyzed nucleotide exchange assay (Procedure A, TR-FRET), KRAS-WT; format: biochemical
Procedure, shortened: (§1)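 RAS (G12C carries C51S/C80L/C118S) loaded with Bodipy-GDP, complexed with Tb-streptavidin; cpd 60 min RT; + SOS/3 mM GTP. G12C 3/40 nM, WT 1/40, NRAS 1.25/40 nM RAS/SOS, 60 min; G12V 1.25/160 nM, 90 min. Normalized to DMSO and saturating inhibitor; 4PL fit.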

KRAS-G12V = KRAS-G12V (Homo sapiens, UniProt P01116, G12V); experiment: SOS-catalyzed nucleotide exchange assay (Procedure A, TR-FRET), KRAS-G12V; format: biochemical
Procedure, shortened: as §1

KRAS-G12D = KRAS-G12D (Homo sapiens, UniProt P01116, G12D); experiment: SOS-catalyzed nucleotide exchange assay (Procedure A, TR-FRET), KRAS-G12D; format: biochemical
Procedure, shortened: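 Signal ratio (520/495 nm, excitation 340 nm) reports Bodipy-GDP retention on biotinylated RAS after SOS-catalyzed exchange with 3 mM GTP. SOS was 40 nM, except 160 nM for G12V. Room-temperature exchange lasted 60 min (90 min for G12V), following a 60 min compound preincubation.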

AsPC-1 cells = experiment: Cellular phospho-ERK assay, AsPC-1 cells (homozygous KRAS-G12D); format: cell-based; details: Homo sapiens, read-out: AsPC1 pERK IC50
Procedure, shortened: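 Inhibition of ERK phosphorylation was determined after treating attached cells with compound for 2 h; top concentration 30 μM, serial 1:3 dilution. Each well's p-ERK:total ERK ratio, read by SureFire Ultra, was fitted with a four-parameter model for IC50.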

[1] = ASPC1, 2 hours compound incubation
[2] = nucleotide exchange, read-out: KRAS WT GNE IC50
[3] = nucleotide exchange, read-out: KRAS G12V GNE IC50
[4] = nucleotide exchange, read-out: KRAS G12D GNE IC50
[5] = ASPC1, 2 h, 2 hours compound incubation

Chain of KRAS-G12D (P01116 with tags, fused parts or gaps isoform P01116-2 G12D): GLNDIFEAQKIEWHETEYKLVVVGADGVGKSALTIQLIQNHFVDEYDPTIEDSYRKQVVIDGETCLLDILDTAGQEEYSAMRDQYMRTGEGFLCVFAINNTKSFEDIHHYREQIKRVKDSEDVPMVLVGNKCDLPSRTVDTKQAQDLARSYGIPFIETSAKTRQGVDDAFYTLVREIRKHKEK
Chain of KRAS-G12V (P01116 with tags, fused parts or gaps isoform P01116-2 G12V): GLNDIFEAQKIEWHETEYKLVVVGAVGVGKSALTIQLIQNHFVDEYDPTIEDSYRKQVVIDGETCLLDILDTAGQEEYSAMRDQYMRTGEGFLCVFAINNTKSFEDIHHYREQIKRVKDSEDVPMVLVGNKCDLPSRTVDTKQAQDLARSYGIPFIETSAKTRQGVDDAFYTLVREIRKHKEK
Chain of KRAS-WT (P01116 with tags, fused parts or gaps isoform P01116-2): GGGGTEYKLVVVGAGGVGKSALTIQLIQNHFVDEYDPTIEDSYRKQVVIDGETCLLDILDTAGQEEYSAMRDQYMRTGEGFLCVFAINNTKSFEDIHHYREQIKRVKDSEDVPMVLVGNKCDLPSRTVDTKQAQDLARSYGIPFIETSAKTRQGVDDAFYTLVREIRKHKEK

SMILES | IC50 (KRAS-WT; KRAS WT GNE IC50, nucleotide exchange) [nM] | IC50 (KRAS-G12V; KRAS G12V GNE IC50, nucleotide exchange) [nM] | IC50 (KRAS-G12D; KRAS G12D GNE IC50, nucleotide exchange) [nM] | IC50 (AsPC-1 cells; [1]) [nM] | IC50 (KRAS-WT; [2]) [nM] | IC50 (KRAS-G12V; [3]) [nM] | IC50 (KRAS-G12D; [4]) [nM] | IC50 (AsPC-1 cells; ASPC1, 2 h, KRAS-G12D, 2 hours) [nM] | IC50 (AsPC-1 cells; [5]) [nM]
C[C@@]1(O)COCCN(c2nc(OC[C@]3(CN4CC5(CCC5)C4)CC3(F)F)nc3sc4c(-c5c(C6(F)CC6)c(Cl)cc6[nH]ncc56)nccc4c23)C1 [Ex-256, (6S)-4-(2-(((R)-1-((2-azaspiro[3.3]heptan-2-yl)methyl)-2,2-difluorocyclopropyl)methoxy)-8-(6-chloro-5-(1-fluorocyclopropyl)-1H-indazol-4-yl)pyrido[4′,3′:4,5]thieno[2,3-d]pyrimidin-4-yl)-6-methyl-1,4-oxazepam-6-ol] | 16.5 | 11.1 | 4.41 | 126 | – | – | – | – | –
Cc1cc2[nH]ncc2c(-c2nc(C#N)cc3c2sc2nc(OC[C@@]45CCCN4C[C@H](F)C5)nc(N4CCOC[C@@](C)(O)C4)c23)c1C(F)(F)F [Ex-31, 2-(((2R,7aS)-2-fluorotetrahydro-1H-pyrrolizin-7a(5H)-yl)methoxy)-4-((S)-6-hydroxy-6-methyl-1,4-oxazepan-4-yl)-8-(6-methyl-5-(trifluoromethyl)-1H-indazol-4-yl)pyrido[4′,3′:4,5]thieno[2,3-d]pyrimidine-6-carbonitrile] | – | – | – | – | 571 | 219 | 305 | 1310 | –
C[C@@]1(O)COCCN(c2nc(OC[C@]3(CN4CCC5(CC4)CC5)CC3(F)F)nc3sc4c(-c5c(C6(F)CC6)c(Cl)cc6[nH]ncc56)nccc4c23)C1 [Ex-233, (6S)-4-(2-(((R)-1-((6-azaspiro[2.5]octan-6-yl)methyl)-2,2-difluorocyclopropyl)methoxy)-8-(6-chloro-5-(1-fluorocyclopropyl)-1H-indazol-4-yl)pyrido[4′,3′:4,5]thieno[2,3-d]pyrimidin-4-yl)-6-methyl-1,4-oxazepan-6-ol] | – | – | – | – | 153 | 25.9 | 10.1 | – | 498
C#CC(F)(F)c1c(C)cc2[nH]ncc2c1-c1nccc2c1sc1nc(OC[C@@]34CCCN3C[C@H](F)C4)nc(N3CCOC[C@@](C)(O)C3)c12 [Ex-153, (6S)-4-(8-(5-(1,1-difluoroprop-2-yn-1-yl)-6-methyl-1H-indazol-4-yl)-2-(((2R,7aS)-2-fluorotetrahydro-1H-pyrrolizin-7a(5H)-yl)methoxy)pyrido[4′,3′:4,5]thieno[2,3-d]pyrimidin-4-yl)-6-methyl-1,4-oxazepan-6-ol] | – | – | – | 1640 | 322 | 215 | 123 | – | –
CN(C)C1CC(F)(F)C2C[C@]12COc1nc(N2CCOC[C@@](C)(O)C2)c2c(n1)sc1c(-c3c(C4(F)CC4)c(Cl)cc4[nH]ncc34)nccc12 (stereo partly drawn) [Ex-270, (6S)-4-(8-(6-chloro-5-(1-fluorocyclopropyl)-1H-indazol-4-yl)-2-((2-(dimethylamino)-4,4-difluorobicy-clo[3.1.0]hexan-1-yl)methoxy)pyri-do[4′,3′:4,5]thi-eno[2,3-d]pyrimidin-4-yl)-6-methyl-1,4-oxazepan-6-ol] | – | – | – | – | 27.9 | 30.9 | 8.78 | 142 | –
Cc1cc2[nH]ncc2c(-c2nccc3c2C2(CC2)c2nc(OC[C@@]45CCCN4C[C@H](F)C5)nc(N4CCOC[C@@](C)(O)C4)c2-3)c1C(F)(F)F (single isomer, unassigned) [Ex-307] | – | – | – | – | 22.4 | 24.7 | 8.96 | 258 | –
C[C@@]1(O)COCCN(c2nc(OC[C@]3(CN4C[C@@H]5CCCO[C@H]5C4)CC3(F)F)nc3sc4c(-c5c(C6(F)CC6)c(Cl)cc6[nH]ncc56)nccc4c23)C1 [Ex-252, (6S)-4-(8-(6-chloro-5-(1-fluorocyclopropyl)-1H-indazol-4-yl)-2-(((R)-2,2-difluoro-1-(((4aS,7aR)-hexahydropyrano[2,3-c]pyrrol-6(2H)-yl)methyl)cyclopropyl)methoxy)pyrido[4′,3′:4,5]thieno[2,3-d]pyrimidin-4-yl)-6-methyl-1,4-oxazepan-6-ol] | – | – | – | – | 57.8 | 32.2 | 4.96 | – | 232
CNc1cc2c(sc3nc(OC[C@@]45CCCN4C[C@H](F)C5)nc(N4CCOC[C@@](C)(O)C4)c32)c(-c2c(C(F)(F)F)c(C)cc3[nH]ncc23)n1 [Ex-30, (6S)-4-(2-(((2R,7aS)-2-fluorotetrahydro-1H-pyrrolizin-7a(5H)-yl)methoxy)-8-(6-methyl-5-(trifluoromethyl)-1H-indazol-4-yl)-6-(methylamino)pyrido[4′,3′:4,5]thieno[2,3-d]pyrimidin-4-yl)-6-methyl-1,4-oxazepan-6-ol] | – | – | – | – | 436 | 196 | 158 | 730 | –
C[C@@]1(O)COCCN(c2nc(OC[C@]3(CN4C[C@@H]5C[C@H]4CO5)CC3(F)F)nc3sc4c(-c5c(C6(F)CC6)c(Cl)cc6[nH]ncc56)nccc4c23)C1 [Ex-236, (6S)-4-(2-(((R)-1-(((15,4S)-2-oxa-5-azabicyclo[2.2.1]heptan-5-yl)methyl)-2,2-difluorocyclopropyl)methoxy)-8-(6-chloro-5-(1-fluorocyclopropyl)-1H-indazol-4-yl)pyrido[4′,3′:4,5]thieno[2,3-d]pyrimidin-4-yl)-6-methyl-1,4-oxazepan-6-ol] | – | – | – | – | 121 | 34.8 | 16.2 | – | 242
C[C@@H]1C[C@@H](COc2nc(N3CCOC[C@@](C)(O)C3)c3c(n2)sc2c(-c4c(C5CC5)c(C(F)(F)F)cc5[nH]ncc45)nccc23)N(C)C1 [Ex-83, (6S)-4-(8-(5-cyclopropyl-6-(trifluoromethyl)-1H-indazol-4-yl)-2-(((2S,4R)-1,4-dimethylpyrrolidin-2-yl)methoxy)pyrido[4′,3′:4,5]thi-eno[2,3-d]pyrimidin-4-yl)-6-methyl-1,4-oxazepan-6-ol] | – | – | – | – | 130 | 103 | 80.1 | 1360 | –
C[C@@]1(O)COCCN(c2nc(OC[C@]3(CN4C[C@H]5C[C@@H]4CO5)CC3(F)F)nc3sc4c(-c5c(C6(F)CC6)c(Cl)cc6[nH]ncc56)nccc4c23)C1 [Ex-257, (6S)-4-(2-(((R)-1-(((1R,4R)-2-oxa-5-azabicyclo[2.2.1]heptan-5-yl)methyl)-2,2-difluorocyclopropyl)methoxy)-8-(6-chloro-5-(1-fluorocyclopropyl)-1H-indazol-4-yl)pyrido[4′,3′:4,5]thieno[2,3-d]pyrimidin-4-yl)-6-methyl-1,4-oxazepan-6-ol] | – | – | – | – | 42.5 | 28.7 | 4.42 | – | 144
C[C@@]1(O)COCCN(c2nc(OC[C@@]34CCCN3C[C@H](F)C4)nc3sc4c(-c5cccc(Cl)c5C5CC5)nncc4c23)C1 [Ex-284] | – | – | – | – | 578 | 138 | 195 | 935 | –
CN1CCC[C@@H]1COc1nc(N2CCOC[C@@](C)(O)C2)c2c(n1)sc1c(-c3c(C4CC4)c(C(F)(F)F)cc4[nH]ncc34)nccc12 [Ex-81, (6S)-4-(8-(5-cyclopropyl-6-(trifluoromethyl)-1H-indazol-4-yl)-2-(((R)-1-methylpyrrolidin-2-yl)methoxy)pyrido[4′,3′:4,5]thi-eno[2,3-d]pyrimidin-4-yl)-6-methyl-1,4-oxazepan-6-ol] | – | – | – | – | 164 | 86.2 | 85.6 | 1110 | –
COc1cc2c(sc3nc(OC[C@@]45CCCN4C[C@H](F)C5)nc(N4CCOC[C@@](C)(O)C4)c32)c(-c2c(C(F)(F)F)c(C)cc3[nH]ncc23)n1 [Ex-27, (6S)-4-(2-(((2R,7aS)-2-fluorotetrahydro-1H-pyrrolizin-7a(5H)-yl)methoxy)-6-methoxy-8-(6-methyl-5-(trifluoromethyl)-1H-indazol-4-yl)pyrido[4′,3′:4,5]thieno[2,3-d]pyrimidin-4-yl)-6-methyl-1,4-oxazepan-6-ol] | – | – | – | – | 793 | 221 | 196 | 660 | –
C[C@@]1(O)COCCN(c2nc(OC[C@@]34CCCN3C[C@H](F)C4)nc3sc4c(-c5c(-c6cc[nH]c6)c(Cl)cc6[nH]ncc56)nccc4c23)C1 [Ex-73, (6S)-4-(8-(6-chloro-5-(1H-pyrrol-3-yl)-1H-indazol-4-yl)-2-(((2R,7aS)-2-fluorotetrahydro-1H-pyrrolizin-7a(5H)-yl)methoxy)pyrido[4′,3′:4,5]thi-eno[2,3-d]pyrimidin-4-yl)-6-methyl-1,4-oxazepan-6-ol] | – | – | – | – | 60.4 | 52.2 | 9.67 | 1060 | –
CC1(C)C2CN(C[C@@]3(COc4nc(N5CCOC[C@@](C)(O)C5)c5c(n4)sc4c(-c6c(C7(F)CC7)c(Cl)cc7[nH]ncc67)nccc45)CC3(F)F)CC21 (stereo partly drawn) [Ex-234, (6S)-4-(8-(6-chloro-5-(1-fluorocyclopropyl)-1H-indazol-4-yl)-2-(((1R)-1-((6,6-dimethyl-3-azabicyclo[3.1.0]hexan-3-yl)methyl)-2,2-difluorocyclopropyl)methoxy)pyrido[4′,3′:4,5]thieno[2,3-d]pyrimidin-4-yl)-6-methyl-1,4-oxazepan-6-ol] | – | – | – | – | 389 | 107 | 27.4 | – | 1520
